Measured values published in patent publication US20260215425A1, “NITRIFICATION INHIBITORS” (The University of Melbourne, priority 2022, published 2026).

What was measured:
[1] = tested on: N. europaea; test: standard nitrification inhibition assay (NO2- production, Griess); format: cell-based, Nitrosomonas europaea; details: [NH4+]=3 mM, [inhibitor]=0.3 mM (10 mol %), pH 7.5, 30° C., 60 min
Description: (§1) Cells of N. multiformis and N. europaea were cultivated to the mid-exponential growth phase (OD600=0.1, [NO2^−] approximately 800 μM) and harvested by filtration onto 0.2 μm membrane filters (Mixed Cellulose Ester (MCE), Sigma Aldrich). The cells were washed with 2×100 mL of 0.1 M sodium phosphate buffer (NaPB), containing 0.2 mM MgSO4 at pH 7.5. The cells were washed from the filter paper by transferring it to a sterile 50 mL tube and resuspending in NaPB (15 mL), followed by 5 s of vortexing (Ratek, Australia) and 3 s of sonication (Vevor, Australia). […] Experiments were performed in triplicate.
(§2) In a deep 96-well plate (2 mL capacity), 980 μL of the bacterial inoculum (OD600=0.03) was added to the inhibitor (10 μL, 30 mmol L^−1 in Milli-Q water), the solutions were mixed thoroughly and pre-incubated in the dark for 5 minutes at 100 rpm and 30° C. (NH4)2SO4 (10 μL, 150 mM, from a prepared sterile solution containing 19.8 g L^−1 (NH4)2SO4 in Milli-Q water) was then added using a multi-channel pipette. The plate was covered with a with an O2 permeable membrane to ensure aeration (Breathe-Easy® sealing membrane, Sigma Aldrich) and incubated in a temperature-regulated rotary incubator (Ratek, Australia) in the dark for 60 minutes at 30° C. and 100 rpm. An aliquot of the reaction solution ([…]) was transferred to a 96-well spectrophotometric plate to which 50 µL of Griess reagent was added. The colour was allowed to develop for 15 minutes at room temperature, and the absorbance was measured at 540 nm. Each assay was accompanied by control treatments to determine the 0% and 100% NO2 signal. The percentage inhibition was calculated according to eqn. 1 from the NO2 production of the cells in NaPB (i) without additive (‘untreated cells’: 0% signal), (ii) with [NH4^+]=3 mM (‘uninhibited’ cells: 100% signal) and (iii) with [NH4^+]=3 mM and [inhibitor]=0.3 mM and 0.03 mM (10 mol % and 1 mol % of [NH4^+], ‘inhibited cells’). Experiments were performed in triplicate.

[2] = tested on: N. multiformis; test: as above; format: cell-based, Nitrosospira multiformis; details: [NH4+]=3 mM, [inhibitor]=0.3 mM (10 mol %), pH 7.5, 30° C., 60 min
Description: as §1, §2

Row | SMILES | % Inhibition NE [1] | % Inhibition NM [2]
1 | CCCCn1cc(CCC)nn1 [Compound N013] | 60 ± 1% | 54 ± 2%
2 | C#CCNC(=O)Cn1cc(CCC)nn1 [Compound 4] | 7.1 ± 1% | 
3 | C#CCCn1cc(CCC)nn1 [Compound 2] | 21 ± 2% | 40 ± 1%
